According to US20130287721A1, “METHOD FOR COUNTERACTING AMMONIA MALODOR” (Firmenich SA, priority 2010, published 2013):

Test system: ammonia lateralization threshold
Assay: Panel evaluation of the lateralization threshold (LT) of ammonia alone and in combination with a PRM
Assay type: in vivo, panellists
Design: LT of ammonia Panellist 1 Cond II / LT of ammonia Panellist 2 Cond II / LT of ammonia Panellist 3 Cond II: unit not given here
Conditions: for Ammonia LT Panellist 1 Cond II / Ammonia LT Panellist 2 Cond II / Ammonia LT Panellist 3 Cond II / Ammonia LT Panellist 1 % Δ / Ammonia LT Panellist 2 % Δ / Ammonia LT Panellist 3 % Δ: Table 3; for Ammonia LT Panellist 1 Cond II / Ammonia LT Panellist 2 Cond II / Ammonia LT Panellist 3 Cond II: ammonia stimulus combined with PRM stimulus (concentration of Table 2 in propylene glycol); for Ammonia LT Panellist 1 % Δ / Ammonia LT Panellist 2 % Δ / Ammonia LT Panellist 3 % Δ / LT of ammonia Panellist 1 %Δ / LT of ammonia Panellist 2 %Δ / LT of ammonia Panellist 3 %Δ: change of ammonia LT, Cond II (with PRM) vs Cond I (ammonia alone); for LT of ammonia Panellist 1 Cond II / LT of ammonia Panellist 2 Cond II / LT of ammonia Panellist 3 Cond II / LT of ammonia Panellist 1 %Δ / LT of ammonia Panellist 2 %Δ / LT of ammonia Panellist 3 %Δ: Table 4; for LT of ammonia Panellist 1 Cond II / LT of ammonia Panellist 2 Cond II / LT of ammonia Panellist 3 Cond II: ammonia stimulus combined with PRM stimulus
Method: An ammonia stimulus test range was prepared. To ensure a stable level of ammonia in each stimulus, the ammonia headspace was stabilized by combining appropriate concentrations of NH4Cl, NaOH and H2O instead of simply adding ammonia directly to a solvent. Different concentrations of ammonia were used to create a stimulus test range by utilizing the appropriate amount of each compound (see Table 1).
A stimulus was also prepared for each PRM which was intended to be combined with ammonia stimuli. As the PRMs differed in their potency and to ensure that each PRM stimulus had approximately the same potency, an abbreviated dose response curve was constructed for each PRM by having four panellists evaluate the intensity of five concentration levels of the PRM dissolved in propylene glycol in duplicate. Assessments were made relative to the reference of 170 ppm allyl heptanoate in propylene glycol, which intensity was set to 0. Based upon the average scores, a rough intensity match was made for each PRM utilizing one of the following criteria. If one of the tested concentration levels averaged at or near zero, this concentration level was selected. If the rating created any sort of reasonable curve, the equation of the curve was determined and solved for 0 to arrive at the PRM assessment level. If multiple concentration levels were equally distant form the match level, then the standard deviation across individuals was considered, as were the individual responses. In general, the PRM level was selected to be on average close to 0 with low variability, with two panellists saying the level was a bit too high and the other two panellists saying the level was a bit too low. The PRMs for which a stimulus was prepared are listed in Table 2 below, together with the concentration of the PRM in the stimulus.
Volunteers were screened for their ability to lateralize ammonia stimuli. For the screening, the experimenter measured the participant's lateralization threshold for ammonia using a two-alternative forced choice modified staircase procedure employing a four-in, two-down, one-up rule with a five reversal criterion, as described below, On each trial volunteers were presented with a pair of glass bottles with clean, custom-made nose pieces. One bottle contained ammonia at a particular level selected from Table 1 and the other bottle contained water only. Each bottle was applied to one nostril using the nose piece. The volunteers were asked to identify which bottle in each pair contained ammonia.
If the ammonia stimulus was correctly identified in four consecutive trials, the concentration was decreased by one level of Table 1 on the next trial. If an incorrect answer was provided, the concentration was increased by one level of Table 1. Location (left or right nostril) of the stimulus was randomized over presentations. Testing continued until one of the following occurred: • 1) Five reversals (correct decision followed by an incorrect decision or vice versa) were achieved; • 2) The volunteer gave a correct response twice in a row at the lowest level of Table 1; or • 3) The volunteer gave an incorrect response at the highest level of Table 1.
In the first circumstance, threshold values were then calculated by averaging the last four reversals. In the second circumstance, the LT was the lowest level. In the third circumstance, the LT could not be calculated. Volunteers were considered qualified to participate in the panel evaluation if their LT could be calculated (Circumstance 1).
The LT of ammonia, both alone and in combination with diverse PRM, was determined. A repeated-measures design was used, such that the LT with and without the addition of a PRM were both measured at the same time in one person by utilizing interwoven stimuli presentations. The LT for each PRM was measured by two to three panellists, the third panellists being included if the results of the first to panellists disagreed. […]

Compound | Ammonia LT Panellist 1 Cond II | Ammonia LT Panellist 2 Cond II | Ammonia LT Panellist 3 Cond II | Ammonia LT Panellist 1 % Δ | Ammonia LT Panellist 2 % Δ | Ammonia LT Panellist 3 % Δ | LT of ammonia Panellist 1 Cond II | LT of ammonia Panellist 2 Cond II | LT of ammonia Panellist 3 Cond II | LT of ammonia Panellist 1 %Δ | LT of ammonia Panellist 2 %Δ | LT of ammonia Panellist 3 %Δ
CC(C)CC1CC(C)(O)CCO1 (centres unmarked) [Florol ®, Tetrahydro-2-isobutyl-4-methyl-4(2H)-pyranol] | 56.3 ppm | 7.3 ppm | 22.9 ppm | 146% | −62% | 0% |  |  |  |  |  | 
CCOC(=O)C1CCC(C(=O)OCC)CC1 (centres unmarked) [Fructalate ®, Diethyl 1,4-cyclohexane dicarboxylate] | 56.3 ppm | 188.3 ppm |  | 194% | 214% |  |  |  |  |  |  | 
CC(C)=CCC/C(C)=C/CO [Geraniol] | 6.1 ppm | 60.0 ppm |  | −68% | −73% |  |  |  |  |  |  | 
CCCCCC1C(=O)CCC1CC(=O)OC (centres unmarked) [Hedione ®, Methyl dihydrojasmonate] | 7.5 ppm | 22.9 ppm | 6.1 ppm | 23% | −90% | −68% |  |  |  |  |  | 
O=Cc1ccc2c(c1)OCO2 [Heliotropine ®, 1,3-Benzodioxole-5-carbaldehyde] | 7.3 ppm | 22.9 ppm | 2.3 ppm | 274% | −87% | −96% |  |  |  |  |  | 
CCC(=O)OCC(C)(C)O[C@@H](C)[C@@H]1CCCC(C)(C)C1 [Helvetolide ®, (+)-(1S,1′R)-2-[1-(3′,3′-dimethyl-1′-cyclohexyl)ethoxy]-2-methylpropyl propanoate] |  |  |  |  |  |  | 11.1 | 2.0 | 2.0 | 454% | 426% | 895%
CCCCCCOC(=O)c1ccccc1O [Hexyl salicylate] | 7.3 ppm | 188.3 ppm | 7.3 ppm | −68% | 162% | −62% |  |  |  |  |  | 
CC(CC=O)CCCC(C)(C)O (centres unmarked) [Hydroxycitronellal] | 71.9 ppm | 56.1 ppm | 22.9 ppm | 20% | −22% | 20% |  |  |  |  |  | 
CCCC(=O)OCC(C)C [Isopropylmethyl butyrate] | 188.4 ppm | 188.3 ppm |  | 81809% | 235% |  |  |  |  |  |  | 
CC(C=O)Cc1ccc(C(C)(C)C)cc1 (centres unmarked) [Lilial ®, 3-(4-Tert-butylphenyl)-2-methylpropanal] | 22.9 ppm | 7.3 ppm | 19.1 ppm | 300% | −96% | 0% |  |  |  |  |  | 
Cc1ccc2c(c1)CC(C)(CO)C2 (centres unmarked) [Lilyflore ®, 2,5-Dimethyl-2-indanmethanol] | 60.0 ppm | 176.5 ppm | 7.3 ppm | 162% | −6% | −84% |  |  |  |  |  | 
C=CC(C)(O)CCC=C(C)C (centres unmarked) [Linalool] | 188.3 ppm | 22.9 ppm | 56.3 ppm | 2480% | 0% | 214% |  |  |  |  |  | 
CC(C)[C@H]1CC[C@@H](CO)CC1 [Mayol ®, cis-7-P-menthanol] |  |  |  |  |  |  | 0.6 | 3.5 | 3.5 | 800% | 212% | 212%
COC(=O)c1ccccc1 [Methyl benzoate] | 7.3 ppm | 60 ppm |  | 213% | 162% |  |  |  |  |  |  | 
CCCCC[C@@H]1C(=O)CC[C@@H]1CC(=O)OC [Paradisone ®, (+)-Methyl (1R)-cis-3-oxo-2-pentyl-1-cyclopentaneacetate] | 22.9 ppm | 225.5 ppm | 6.1 ppm | 0% | 214% | −73% |  |  |  |  |  | 
C=C1CCCC(C)(C)C1C(=O)OC (centres unmarked) [Romascone ®, Methyl 2,2-dimethyl-6-methylene-1-cyclohexanecarboxylate] |  |  |  |  |  |  | 11.1 | 2.0 | 6.3 | 1685% | 77% | 1686%
CC1=C(C=O)C(C)(C)CC=C1 [Safranal] | 22.9 ppm | 2.2E−03 ppm |  | 20% | 3088% |  |  |  |  |  |  | 
CCCOC(=O)[C@H](C)OC(C)(C)CC [Sclareolate ®, Propyl (S)-2-(1,1-dimethylpropoxy)propanoate] |  |  |  |  |  |  | 1.1 | 1.1 | 0.6 | 465% | 223% | −2%
Cedrenol | 2.3 ppm | 60 ppm | 2.3 ppm | −68% | 162% | −96% |  |  |  |  |  | 
Mixture of 3-(4-ethylphenyl)-2,2-dimethylpropanal and 3(2-ethylphenyl)-2,2-dimethylpropanal [Floralozone] |  |  |  |  |  |  | 2.0 | 6.3 | 3.5 | 895% | 214% | 77%
